The values below come from US10172951B2, “Dendrimer based nanodevices for therapeutic and imaging purposes” (priority 2009, dated 2019).

For series [1] the following is noted: not told; cited from earlier work.
A short description of series [2]: Transmembrane transport and permeability, chorion. Type of series: in vitro ADME, human. The settings on record: 0.3 mg/mL. An excerpt: (§1) All human fetal membrane specimens were obtained at the time of cesarean section for obstetrical indications. The fetal membrane comprising chorioamniotic membrane (intact membranous tissue containing both amnion and chorion together) (n=7) and amnion (n=7) and chorion (n=7) were separately procured (size 6×9″). Each membrane was cut into 9 pieces for the 9 sets of diffusion chamber. The fresh membranes were collected immediately after the delivery, washed with PBS to remove the blood and stored in PBS until (˜1 h at 4° C.) it was mounted on the diffusion chamber (37±0.5° C.). Excess membranes were trimmed. The diffusion experiments were performed for 48 hours by mounting the membrane in the chamber to study the transport across the membranes. In all the experiments with chorioamniotic membrane the choriodecidua (maternal side) was placed facing the donor chamber and the amnionic epithelium (fetal side) was facing the receptor chamber. The chorion and amnion were mechanically separated by gently pulling the two membranes apart. For the chorion, the side attached to amnion was placed facing the receptor chamber and for the amnion the side attached to the chorion was placed facing the donor chamber in the diffusion apparatus. For histological evaluation, the tissue samples were collected at 0.5, 1, 2, 3 and 4 hours for and were fixed in 10% formalin overnight. Further, some sections were analyzed by hematoxylin and eosin (H & E) staining. The membrane thickness was measured using the Mitutoyo Super Caliper by placing the respective membranes between the two glass slides and subtracting the thickness of the glass slides without the membrane.
(§2) Permeation experiments were carried out using a two-chamber (donor and receptor) side-by-side Permegear diffusion cell with a chamber volume of 3 mL and with a diameter of 13 mm and a diffusional area of 1.32 cm^2. The fetal membranes (chorion and amnion together, amnion and chorion) each (n=9) were mounted between two halves of the donor and receptor cell (9 sets), which were further clamped together and sealed tightly with the rubber packing at the end of each glass chamber. The receptor cell (volume 3 mL) was filled with sterile PBS (pH 7.4). The donor cell (volume 3 mL) was filled with solution of compounds whose permeability was evaluated. […] The system was maintained at 37° C. by using a circulating water bath and a jacket surrounding each cell. The donor and receiving medium was continuously stirred (600 rpm) with a magnetic bar to avoid stagnant aqueous diffusion layer effects. Aliquots (200 μL) were collected from the receptor cell every 30 min till first 6 hours and at predetermined intervals thereafter and replaced with equal volume of PBS to maintain sink conditions throughout the study. […] The concentration of compound in the receptor medium was determined using a Molecular Devices SpectroMax M2, UV visible and Fluorescent plate reader at ex 495/em 521. The cumulative amount of compound transported across the membrane in the receptor cell was determined using a calibration curve (a transport of 50% corresponds equilibrium achieved). All the experiments were conducted in dark room. All experiments were done in triplicate and the results are reported as mean±STDev.
(§3) [formula] […] The thickness of the chorioamnion, chorion and amnion was 0.22 mm, 0.16 mm and 0.05 mm respectively (n=7), as measured with the help of Mitutoyo Super Caliper. […]

Series [3] can be described thus: Transmembrane transport and permeability, chorioamnion. In kind it is in vitro ADME, human. As to conditions: 0.3 mg/mL.
Description: as §1
Permeation experiments were carried out using a two-chamber (donor and receptor) side-by-side Permegear diffusion cell with a chamber volume of 3 mL and with a diameter of 13 mm and a diffusional area of 1.32 cm^2. The fetal membranes (chorion and amnion together, amnion and chorion) each (n=9) were mounted between two halves of the donor and receptor cell (9 sets), which were further clamped together and sealed tightly with the rubber packing at the end of each glass chamber. […] The donor cell (volume 3 mL) was filled with solution of compounds whose permeability was evaluated. […] The concentration of compound in the receptor medium was determined using a Molecular Devices SpectroMax M2, UV visible and Fluorescent plate reader at ex 495/em 521. The cumulative amount of compound transported across the membrane in the receptor cell was determined using a calibration curve (a transport of 50% corresponds equilibrium achieved). […]
as §3

Series [4] in a line: Brain biodistribution of FITC-G4-OH after subarachnoid/subdural injection (microscopy, HPLC). In kind it is in vivo, rabbit. As to conditions: 24 hours after injection into CSF. The method, then: Animals in each group were euthanized 24 hours after subarachnoid administration of FITC-G4-OH with an overdose of pentobarbital (120 mg/kg administered intra-peritoneal). Following administration of the drug, animals were secured to a stainless steel surgical apparatus, the heart was exposed rapidly and a butterfly needle was inserted and secured in the left apex of the heart, the vena cava was incised and perfusion was initiated. Animals were perfused under pressure with 30 mL chilled physiological saline (0.9%) and 120 mL of 4% paraformaldehyde in phosphate buffer (0.1 M, pH 7.4) at a constant rate of 5 ml/min using a constant pressure pump, brains were removed and immersed in the same fixative for 48 hours, cryoprotected using graded solutions of sucrose and frozen at −80° C. until they were sectioned. […]
Brain tissue samples weighing approximately 1 mg were collected from healthy pups and CP pups and used for analysis. […] The samples were analyzed by HPLC and the amount of dendrimer-FITC quantified using the standard calibration curve for FITC-G4-OH. To estimate the fluorescence as a measure of concentration of FITC-G4-OH localized in hippocampus or cortex, the samples were analyzed by reverse phase-HPLC and the amount was quantified using the standard calibration curve for FITC-G4-OH. […]

Series [5] is described as follows: Permeability across the rabbit amniotic membrane (side by side diffusion chamber). Type of series: in vitro ADME. As to conditions: in 1 hour, 37° C. The method, then:
The permeability of the G4-PAMAM-FITC across the normal rabbit amniotic membrane and endotoxin treated rabbit amniotic membrane was studied using a side by side Permegear diffusion chamber at 37° C. for 48 hours. Endotoxin treated membranes were used to mimic the condition of E. coli infection in uterus. The freshly excised rabbit membranes obtained after sacrificing the rabbit was placed in between the donor and receptor chamber.

Series [6] in a line: Transmembrane transport and permeability, amnion. Type of series: in vitro ADME, human.
Description: as §1, §2
[formula] To determine the permeability coefficient, P, a plot of −V/2A ln (1−2Ct/C0) against t was constructed and linear fitting was performed. The slope of the linear portion of the graph yields a permeability coefficient. The thickness of the chorioamnion, chorion and amnion was 0.22 mm, 0.16 mm and 0.05 mm respectively (n=7), as measured with the help of Mitutoyo Super Caliper. […] The FIGS. 93A-C and FIG. 94 show the plots used for calculation of the permeability and the correlation in all the cases ranged from 0.96 to 0.99.

Take `CC(C)(N)C(=O)O` [2-aminoisobutyrate]: the in vitro permeability in series [1] is 1.5×10^−6 cm^2/s.
Regarding “fluorescein isothiocyanate [FITC, reference compound]”, the “Permeability coefficient, Chorion” value in series [2] is on record as 1.32×10^−6 cm^2/s. For the same compound, in series [3], the “Permeability coefficient, Chorioamnion” value is on record as 7.93×10^−7 cm^2/s. For the same compound, the “regional and cellular distribution in brain” value in series [4] is “non-specific uptake in all layers of the cortex and ventricular region”. In series [5], this compound came in with a crossed the membrane of 50%. Besides, the “Permeability coefficient, Amnion” value in series [6] (0.3 mg/mL) is recorded as 2.26×10^−6 cm^2/s. In addition, the transport across amnion in series [6] (in 2 hours, 0.3 mg/mL) amounted to 49%; in series [6] (in 5 hours), 50%.
